Data as given in patent publication US11214567B2, “Small molecule inhibitors of MYC and uses thereof” (The Regents of the University of Michigan, priority 2017, dated 2022).

Assays:
[1] = test system: c-MYC; conditions: osteosarcoma, leukemia and lymphoma cells; cited from earlier work
[2] = test system: C-MYC; assay: Western blotting of C-MYC protein levels in cancer cells; type: cell-based, human; conditions: NCI/ADR-RES cells; 0.5 μM; positive control
Experimental: Cells (5×10^5) were cultured in 6-well plate and treated with KJA03 at designated concentrations. After treatment, cells were lysed with cell lysis buffer on ice at 4° C., sonicated for 3 min, centrifuged (12,000 rpm, 10 min, 4° C.) and then, the supernatant was collected. Protein concentrations of supernatants were evaluated with BCA assay. Proteins were resolved in 10% SDS/PAGE and electrotransferred to Immun-Blot PVDF membrane (Bio-Rad). After blocking with 5% milk in TBST (Tris-buffered saline with 0.1% Tween 20), membranes were probed with primary antibodies (anti-PARP, anti-caspase 3 and anti-GAPDH) 1:1000 dilutions overnight at 4° C. Membranes were then washed with TBST (5 min×3), incubated with Dylight 800-conjugated secondary antibodies 1:7500 dilutions in 5% milk for 1 h at room temperature, and washed with TBST (5 min×3). Fluorescent signal was then scanned by Odyssey Imaging Systems (LI-COR Biosciences).
The effect of KJA03 on the MYC protein levels, including C-MYC and N-MYC, NCI/ADR-RES cells were treated with KJA03 at concentration of 0.1 (half IC50) and 0.2 (IC50) μM for 24 and 48 h. […] It has previously been reported that JQ1 treatment leads to down-regulation of c-MYC protein levels in osteosarcoma, leukemia and lymphoma cells (see, e.g., Mertz, J. A.; et al., Proceedings of the National Academy of Sciences 2011, 108, 16669-16674).
Experiments were conducted to further repeat the experiment and JQ1 was chosen as a positive control. As expected, expression of C-MYC was reduced by KJA03 at 24 h of treatment, correlated with previous experiment (FIG. 3).
Experiments were conducted that further performed a time-course experiment to evaluate C-MYC suppression including 2, 6, 8 24 and 48 h at concentration of 0.2 μM. To define the specificity of MYC suppression in further detail, we treated cells with a range of compound concentrations at 24 h. […] To determine whether KJA03 can suppress C-MYC in different cell lines, we next investigated the level of C-MYC in response to treatment with KJA03 at 0.2 μM using other three different OVCAR8, MIA PaCa-2 and Panc-1 cell lines.

[3] = test system: SKOV3; assay: MTT assay (cytotoxicity), SKOV3; type: cell-based; conditions: Homo sapiens, SK-OV-3, 72 h, drug concentration causing a 50% decrease in cell population
Experimental: (§1) The evaluation of cytotoxicity was based on the reduction of MTT dye by viable cells to give purple formazan products, which can be measured spectrophotometrically at 540 nm. One hundred eighty microliters of cancer cells were seeded into 96-well plates at 3,500-4,000 cells/well and incubated at 37° C. overnight before the indicated treatments. After 72 h, 20 μl of MTT solution (3 mg/ml) was added and incubated again for 3 h. After removal of media and solubilization of formazan crystals in 150 μL of DMSO, the absorbance was measured at 570 nm. Percentage of cell growth inhibition was expressed as 1-[(A−B)/(C−B)]×100% (A, B and C were the absorbance values from experimental, blank and control cells, respectively).
(§2) KJA derivatives were tested by the MTT assay against five human cancer cell lines including ovarian cancer cell lines (OVCAR-8, NCI/ADR-RES and SKOV3) and pancreatic cancer cell lines (MIA PaCa-2 and Pac-1). […] It is important to note that the NCI/ADR-RES cell line shares a large number of karyotypic abnormalities with OVCAR-8 but expresses high levels of MDR1 (multidrug resistance protein 1)/P-glycoprotein (see, e.g., Xu, S.; et al., Proceedings of the National Academy of Sciences 2012, 109, 16348-16353), resulting in resistance to multiple anticancer drugs in clinical use, including paclitaxel and doxorubicin.

[4] = test system: NCI/ADR-RES; assay: MTT assay (cytotoxicity), NCI/ADR-RES; type: cell-based, human; conditions: Homo sapiens, NCI/ADR-RES; MTT, 72 h; drug concentration causing a 50% decrease in cell population
Experimental: as §1, §2

[5] = test system: OVCAR8; assay: MTT assay (cytotoxicity), OVCAR8; type: cell-based; conditions: Homo sapiens, OVCAR-8, 72 h, drug concentration causing a 50% decrease in cell population
Experimental: as §1, §2

[6] = test system: MIA PaCa-2; assay: MTT assay (cytotoxicity), MIA PaCa-2; type: cell-based; conditions: Homo sapiens, 72 h, drug concentration causing a 50% decrease in cell population
Experimental: as §1, §2

[7] = test system: Panc1; assay: MTT assay (cytotoxicity), Panc1; type: cell-based; conditions: Homo sapiens, PANC-1, 72 h, drug concentration causing a 50% decrease in cell population
Experimental: as §1, §2

Compound	c-MYC protein levels [1]	C-MYC expression [2]	IC50 [3] [µM]	IC50 [4] [µM]	IC50 [5] [µM]	IC50 [6] [nM]	IC50 [7] [nM]
Cc1sc2c(c1C)C(c1ccc(Cl)cc1)=N[C@@H](CC(=O)OC(C)(C)C)c1nnc(C)n1-2 [JQ1, reference compound]	down-regulation	did not inhibit C-MYC expression					
O=c1onc(-c2ccccc2)n1-c1ccccc1-c1nc(-c2ccccc2)no1 [KJA01, 3-Phenyl-4-(2-(3-phenyl-1,2,4-oxadiazol-5-yl)phenyl)-1,2,4-oxadiazol-5(4H)-one]			5.82	4.31 ± 0.55	4.65 ± 2.05	2490	2160
O=c1onc(-c2ccc(Cl)cc2)n1-c1ccccc1-c1nc(-c2ccc(Cl)cc2)no1 [KJA02, 3-(4-Chlorophenyl)-4-(2-(3-(4-chlorophenyl)-1,2,4-oxadiazol-5-yl)phenyl)-1,2,4-oxadiazol-5(4H)-one]			11.2	4.16 ± 2.61	1.96 ± 0.42	1120	1510
O=c1onc(-c2ccc(F)cc2)n1-c1ccccc1-c1nc(-c2ccc(F)cc2)no1 [KJA04, 3-(4-Fluorophenyl)-4-(2-(3-(4-fluorophenyl)-1,2,4-oxadiazol-5-yl)phenyl)-1,2,4-oxadiazol-5(4H)-one]			20.9	7.63 ± 3.01	7.21 ± 1.55	5170	3220
COc1cc(-c2nc(-c3ccccc3)no2)c(-n2c(-c3ccccc3)noc2=O)cc1OC [KJA06, 4-(4,5-Dimethoxy-2-(3-phenyl-1,2,4-oxadiazol-5-yl)phenyl)-3-phenyl-1,2,4-oxadiazol-5(4H)-one]			> 30	> 30	> 30	> 30000	> 30000
COc1cc(-c2nc(-c3ccc(Cl)cc3)no2)c(-n2c(-c3ccc(Cl)cc3)noc2=O)cc1OC [KJA09, 3-(4-Chlorophenyl)-4-(2-(3-(4-chlorophenyl)-1,2,4-oxadiazol-5-yl)-4,5-dimethoxyphenyl)-1,2,4-oxadiazol-5(4H)-one]			> 30	> 30	> 30	> 30000	> 30000
COc1cc(-c2nc(-c3ccccc3Cl)no2)c(-n2c(-c3ccccc3Cl)noc2=O)cc1OC [KJA10, 3-(2-Chlorophenyl)-4-(2-(3-(2-chlorophenyl)-1,2,4-oxadiazol-5-yl)-4,5-dimethoxyphenyl)-1,2,4-oxadiazol-5(4H)-one]			3.23 ± 0.37	2 ± 0.76	0.71 ± 0.08	710	1080
O=c1onc(-c2ccccc2F)n1-c1ccccc1-c1nc(-c2ccccc2F)no1 [KJA17, 3-(2-Fluorophenyl)-4-(2-(3-(2-fluorophenyl)-1,2,4-oxadiazol-5-yl)phenyl)-1,2,4-oxadiazol-5(4H)-one]			25.6	9.42 ± 1.61	9.12 ± 0.88	1430	3170
CC(=O)O[C@H]1C(=O)[C@@]2(C)[C@H]([C@H](OC(=O)c3ccccc3)[C@]3(O)C[C@H](OC(=O)[C@H](O)[C@@H](NC(=O)c4ccccc4)c4ccccc4)C(C)=C1C3(C)C)[C@]1(OC(C)=O)CO[C@@H]1C[C@@H]2O [Paclitaxel, reference compound]				> 30	< 0.04	< 40	< 40
